Measurements taken from US20140228287A1, “1-[(3-CYANO-PYRIDIN-2-YL)METHYL]-3-METHYL-7-(2-BUTYN-1-YL)-8-[3-(R)-AMINO-PIPERIDIN-1-YL]-AXANTHINE FOR THE TREATMENT OF A METABOLIC DISORDER OF A PREDOMINANTLY CARNIVOROUS NON-HUMAN ANIMAL” (BOEHRINGER INGELHEIM VETMEDICA GMBH, priority 2010, published 2014).
“Also recorded” adds a separate entry of the source. Where a name gives a salt, the structure may show the parent alone.

What was measured:
DPP IV = DPP IV (Homo sapiens, UniProt P27487); assay: In vitro DPP IV inhibition; assay type: biochemical; details: for IC50: in vitro
Chain of DPP IV (P27487 whole entry, species assumed): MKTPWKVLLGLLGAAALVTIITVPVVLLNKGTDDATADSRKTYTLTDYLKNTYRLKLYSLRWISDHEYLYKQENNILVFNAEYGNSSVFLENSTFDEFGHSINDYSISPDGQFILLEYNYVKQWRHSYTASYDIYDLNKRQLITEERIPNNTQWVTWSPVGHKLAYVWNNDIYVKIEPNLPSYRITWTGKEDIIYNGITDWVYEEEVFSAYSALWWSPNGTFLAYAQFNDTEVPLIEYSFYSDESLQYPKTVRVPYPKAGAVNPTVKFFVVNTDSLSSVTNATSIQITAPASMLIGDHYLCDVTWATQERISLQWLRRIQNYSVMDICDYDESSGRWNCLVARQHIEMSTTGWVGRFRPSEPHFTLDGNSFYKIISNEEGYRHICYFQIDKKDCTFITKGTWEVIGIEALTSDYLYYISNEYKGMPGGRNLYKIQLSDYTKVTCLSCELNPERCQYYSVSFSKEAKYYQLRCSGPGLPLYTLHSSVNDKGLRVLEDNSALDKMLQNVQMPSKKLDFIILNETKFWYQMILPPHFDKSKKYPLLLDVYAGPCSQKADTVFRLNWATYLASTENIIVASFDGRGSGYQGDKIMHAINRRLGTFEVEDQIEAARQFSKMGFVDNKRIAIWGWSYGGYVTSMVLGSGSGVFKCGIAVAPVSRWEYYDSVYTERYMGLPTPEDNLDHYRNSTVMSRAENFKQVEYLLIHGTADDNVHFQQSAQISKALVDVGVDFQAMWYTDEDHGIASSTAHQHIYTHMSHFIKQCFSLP
Method: Studies were also conducted to assess the inhibitory effect of this compound on plasma DPP IV activity in several species.

M1 muscarinic receptors = M1 muscarinic receptors (Homo sapiens, UniProt P11229); assay: Selectivity panel, radio ligand binding assay: M1; details: only interaction observed in full panel of receptors, ion channels and enzymes
Chain of M1 muscarinic receptors (P11229 whole entry): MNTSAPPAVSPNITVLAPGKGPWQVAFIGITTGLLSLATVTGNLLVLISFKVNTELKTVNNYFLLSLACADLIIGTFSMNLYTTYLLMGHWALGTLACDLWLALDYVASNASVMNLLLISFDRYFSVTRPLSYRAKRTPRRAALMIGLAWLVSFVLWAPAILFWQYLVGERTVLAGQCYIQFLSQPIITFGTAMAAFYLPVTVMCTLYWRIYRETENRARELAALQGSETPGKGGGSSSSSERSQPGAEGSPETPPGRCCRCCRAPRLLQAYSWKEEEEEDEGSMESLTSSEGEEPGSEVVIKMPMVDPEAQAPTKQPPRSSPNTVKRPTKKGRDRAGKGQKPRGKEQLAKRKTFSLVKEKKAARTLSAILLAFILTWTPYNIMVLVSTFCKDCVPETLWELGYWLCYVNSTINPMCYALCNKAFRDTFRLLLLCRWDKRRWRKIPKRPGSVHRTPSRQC
Method: In selectivity assays as described in Dörje et al. (1991), J. Pharmacol. Exp. Ther., vol. 256, p. 727-733, chapter Radio ligand binding studies, p. 729, using the full panel of receptors, ion channels and enzymes, the only interaction observed with 1-[(3-cyano-pyridin-2-yl)methyl]-3-methyl-7-(2-butyn-1-yl)-8-[3-(R)-amino-piperidin-1-yl]-xanthine monohydrochloride was with M1 muscarinic receptors, with IC50 in a binding assay of 3 μM.

[1] = 60-Day tolerability study of tablets in cats: adverse effects; assay type: in vivo; details: 20 and 40 mg daily oral tablets for 60 days, monohydrochloride
Method: This study was conducted in order to examine the long-term tolerability of a pharmaceutical composition comprising 1-[(3-cyano-pyridin-2-yl)methyl]-3-methyl-7-(2-butyn-1-yl)-8-[3-(R)-amino-piperidin-1-yl]-xanthine monohydrochloride in cats after repeated oral administration for 60-days.
For this purpose, the compound according to the invention has been admixed with standard ingredients to a scored, oblong, brown tablet, size 10×5.5 mm, comprising 1-[(3-cyano-pyridin-2-yl)methyl]-3-methyl-7-(2-butyn-1-yl)-8-[3-(R)-amino-piperidin-1-yl]-xanthine monohydrochloride at 21.68 mg of the chloride per tablet (which equals 20 mg of the free base) and 10% meat flavour.
20 male healthy non-obese cats (Domestic short hair feline) supplied by Liberty Research, Inc., Waverly, N.Y., USA, of an age of 13 to 20 months were used. After an adaptation period of 4 weeks, they were separated into three groups: group 1 (6 members, no. 1 to 6) for placebo treatment, group 2 (7 members, no. 7 to 13) for treatment with 20 mg/cat, group 3 (7 members, no. 14 to 20) for treatment with 40 mg/cat. They were treated once daily in the morning, orally with the respective tablet(s) for 60 days. All animals had fasted over night and were fed 4 hours after the administration. Drinking water was offered ad libitum. […]

plasma DPP-4 [2] = biological target: T1, plasma DPP-4 (Felis catus, UniProt Q9N2I7); assay: Inhibition of DPP-4 in cat plasma (in vitro); assay type: biochemical
T1 construct: from tissue; host or cells: cat plasma (3 cats), diluted 70-fold
T1 sequence (Q9N2I7 38-765 limits assumed): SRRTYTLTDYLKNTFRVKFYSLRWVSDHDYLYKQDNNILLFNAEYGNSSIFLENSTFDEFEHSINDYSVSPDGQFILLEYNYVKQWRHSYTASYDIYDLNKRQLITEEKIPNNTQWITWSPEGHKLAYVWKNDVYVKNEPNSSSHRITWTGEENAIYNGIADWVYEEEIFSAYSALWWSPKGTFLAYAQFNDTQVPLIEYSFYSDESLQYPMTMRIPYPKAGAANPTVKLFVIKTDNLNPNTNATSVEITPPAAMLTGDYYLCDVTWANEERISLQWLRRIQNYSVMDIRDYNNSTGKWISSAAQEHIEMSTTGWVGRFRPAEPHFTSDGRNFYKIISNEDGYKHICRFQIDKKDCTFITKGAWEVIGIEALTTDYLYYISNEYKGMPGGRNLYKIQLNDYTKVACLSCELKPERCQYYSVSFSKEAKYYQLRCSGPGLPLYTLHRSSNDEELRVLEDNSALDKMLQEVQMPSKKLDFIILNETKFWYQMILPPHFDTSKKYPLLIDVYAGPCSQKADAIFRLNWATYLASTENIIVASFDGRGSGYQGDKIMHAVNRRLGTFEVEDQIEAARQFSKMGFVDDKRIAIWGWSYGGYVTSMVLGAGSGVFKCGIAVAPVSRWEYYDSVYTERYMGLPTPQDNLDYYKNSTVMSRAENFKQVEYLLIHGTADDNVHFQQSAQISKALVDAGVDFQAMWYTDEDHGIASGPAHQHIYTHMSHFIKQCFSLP
Method: (§1) Plasma obtained from 3 different cats and one Wistar rat as control were each incubated with a range of concentrations of 1-[(3-cyano-pyridin-2-yl)methyl]-3-methyl-7-(2-butyn-1-yl)-8-[3-(R)-amino-piperidin-1-yl]-xanthine monohydrochloride. Plasma DPP-4 activity was measured in the following way (which is also described in Eckhard et al. (2007), J. Med. Chem., Vol. 50, 6450-6453, Supporting Information).
Rat and cat plasma was used for ex vivo measurement of DDP-4 activity. Blood was collected in EDTA tubes and subjected to centrifugation. The resultant supernatant was aliquoted and frozen. Plasma DPP-4 activity was assayed after dilution (140-fold for rat plasma; 70-fold for cat plasma) with assay buffer (100 mM Tris-HCl, 100 mM NaCl, pH 7.8; compound stock solutions in dimethylsulfoxide (DMSO), final DMSO concentration in the assay 1%) prior to use.
(§2) The assay itself was initiated by mixing 50 μl of diluted plasma with 50 μl of diluted substrate (Ala-Pro-AFC) and performed in black flat-bottom 96-well plates. The plates were then incubated at room temperature for 1 h and fluorescence was measured at excitation/emission wavelengths of 405/535 nm. Data analysis was performed by calculating the fluorescence in the presence of the test compound compared to the fluorescence of the vehicle control after subtracting the background fluorescence.
(§3) From a plot of concentration against activity (equivalent to fluorescence units) kinetic data could be collected, e.g. the half-maximal inhibitory concentration (IC50) of the tested compound in the different animals, which data are given in the following Table 2.

plasma DPP IV = assay: Plasma DPP IV activity after oral administration, Rhesus monkey; assay type: in vivo; details: 1 mg/kg oral, 24 hours post dose
Method: The effect of 1-[(3-cyano-pyridin-2-yl)methyl]-3-methyl-7-(2-butyn-1-yl)-8-[3-(R)-amino-piperidin-1-yl]-xanthine on plasma DPP IV activity after oral administration was investigated in the rat, the Beagle dog and the Rhesus monkey. These investigations were conducted as described in the following.
Overnight fasted Rhesus monkeys (n=4; 2 males and 2 females) were administered oral doses of 1-[(3-cyano-pyridin-2-yl)methyl]-3-methyl-7-(2-butyn-1-yl)-8-[3-(R)-amino-piperidin-1-yl]-xanthine monohydrochloride at 1 mg/kg bw. Blood samples were drawn from a butterfly that was inserted into a forearm vein of restrained monkeys. Blood was collected in EDTA tubes prior to administration of 1-[(3-cyano-pyridin-2-yl)methyl]-3-methyl-7-(2-butyn-1-yl)-8-[3-(R)-amino-piperidin-1-yl]-xanthine monohydrochloride and subsequently at 0.5, 1, 2, 4, 8, 24, 48, and 72 hour time points post dose. Plasma was prepared following blood collection and frozen for determination of DPP-IV activity.

plasma DPP-4 [3] = biological target: T2, plasma DPP-4 (Rattus norvegicus, UniProt P14740); assay: Inhibition of DPP-4 in rat plasma (in vitro); assay type: biochemical; details: wistar rat plasma
T2 construct: from tissue
T2 sequence (P14740 37-767 limits assumed): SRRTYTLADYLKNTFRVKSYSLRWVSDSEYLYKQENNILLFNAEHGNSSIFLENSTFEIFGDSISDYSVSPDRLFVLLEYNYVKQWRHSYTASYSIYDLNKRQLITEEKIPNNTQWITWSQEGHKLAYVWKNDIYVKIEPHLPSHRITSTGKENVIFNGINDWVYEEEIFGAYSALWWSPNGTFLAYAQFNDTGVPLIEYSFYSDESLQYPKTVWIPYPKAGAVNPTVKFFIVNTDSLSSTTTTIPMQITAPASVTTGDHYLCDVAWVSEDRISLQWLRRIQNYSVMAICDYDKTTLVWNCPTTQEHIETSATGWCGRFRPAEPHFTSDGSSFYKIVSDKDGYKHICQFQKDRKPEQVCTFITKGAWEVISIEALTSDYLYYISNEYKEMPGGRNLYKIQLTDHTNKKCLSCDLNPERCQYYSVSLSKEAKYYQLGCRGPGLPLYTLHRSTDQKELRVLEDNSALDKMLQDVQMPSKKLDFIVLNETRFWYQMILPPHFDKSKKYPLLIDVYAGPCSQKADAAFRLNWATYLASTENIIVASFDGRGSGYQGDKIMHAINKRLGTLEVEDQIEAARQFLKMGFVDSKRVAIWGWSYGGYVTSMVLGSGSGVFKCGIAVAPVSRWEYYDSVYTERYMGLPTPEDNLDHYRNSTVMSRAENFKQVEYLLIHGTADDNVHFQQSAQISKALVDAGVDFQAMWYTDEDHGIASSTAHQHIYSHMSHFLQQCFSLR
Method: as §1
Rat and cat plasma was used for ex vivo measurement of DDP-4 activity. Blood was collected in EDTA tubes and subjected to centrifugation. The resultant supernatant was aliquoted and frozen. […]
as §2, §3

Structure (SMILES): CC#CCn1c(N2CCC[C@@H](N)C2)nc2c1c(=O)n(Cc1ncccc1C#N)c(=O)n2C [1-[(3-cyano-pyridin-2-yl)methyl]-3-methyl-7-(2-butyn-1-yl)-8-[3-(R)-amino-piperidin-1-yl]-xanthine monohydrochloride]
- IC50 (DPP IV; GLP-1 as substrate): ~0.18 nM
- IC50 (DPP IV; dipeptide artificial substrate): ~1 nM
- mode of DPP IV inhibition (DPP IV; mechanistic studies): competitive and reversible inhibitor
- IC50 (M1 muscarinic receptors): 3000 nM
- adverse effects / tolerability [1]: Adverse effects were not detected; also recorded: well tolerated
- IC50 (plasma DPP-4 [2]; cat 1 plasma): 1.94 nM
- hillslope (plasma DPP-4 [2]; cat 1 plasma): −0.7518
- IC50 (plasma DPP-4 [2]; cat 2 plasma): 1.45 nM
- hillslope (plasma DPP-4 [2]; cat 2 plasma): −0.7102
- IC50 (plasma DPP-4 [2]; cat 3 plasma): 1.84 nM
- hillslope (plasma DPP-4 [2]; cat 3 plasma): −0.7615
- inhibition of plasma DPP IV activity (plasma DPP IV): 54%
- IC50 (plasma DPP-4 [3]): 1.95 nM
- hillslope (plasma DPP-4 [3]): −0.8462
